Patent publication US20210113540A1, “TREATMENT AGENT AND PHARMACEUTICAL COMPOSITION FOR GLIOMA” (NATIONAL UNIVERSITY CORPORATION HOKKAIDO UNIVERSITY, priority 2018, published 2021)
Like-named read-outs stand apart in the source and are kept apart here.

Legend:
[1] = system: SOX2 in GICs (E16); test: SOX2 immunostaining, SOX2/DAPI positive rate in GICs (E16); assay type: cell-based, human
Procedure: The extranuclear elimination of compound 8-dependent SOX2 is dependent on the extranuclear transport factor, Exportin (also known as CRM1). The cells were cultured for one day in the presence of Compound 8 (10 μM) and a CRM1-specific inhibitor leptomycin B (LMB, 150 nM), and GICs were immunostained with the SOX2 antibody. As a result, the SOX2/DAPI positive rate in GICs (E6) was as follows: Control: 95±2%, supplemented with Compound 8: 7±3%, supplemented with Compound 8+LMB: 87±9%; the SOX2/DAPI positive rate in GICs (E16) was as follows: Control: 72±11%, supplemented with compound 8: 0.5±1%, supplemented with Compound 8+LMB: 81±10%. The addition of LMB suppressed Compound 8-dependent extranuclear elimination of SOX2.
(§1) When UDP-GlcNAc was added after the chemical was added to GIC, reduced SOX2 expression in GICs and the cytotoxic activity of Compound 8 on GICs were neutralized (FIGS. 3 and 4). SOX2 K75A in which lysine 75 involved in the binding of CRM1 and SOX2 was substituted with alanine and SOX2 S248A in which the 0-GlcNAcylation target serine 248 was substituted with alanine were prepared, thereby establishing GICs that constitutively express these SOX2 mutants and wild-type SOX2 (SOX2 wt). After treatment with Compound 8, the localization of SOX2 was examined by immunostaining using an anti-FLAG antibody, and the viability of GICs expressing these mutants was examined by MTT assay (FIG. 5). In the presence of Compound 8, SOX2 K75A was present in the nucleus and partially neutralized the cytotoxic activity of Compound 8. SOX2 S248A was not retained in the nucleus by treatment with Compound 8, and no inhibitory effect on cytotoxic activity was observed. […] The SOX2/DAPI positive rate was as follows: GIC (E6): Control: 0%, SOX2 wt: 36±5%, SOX2 K75A: 63±5%, SOX2 S248A: 18±2%; GIC (E16): Control: 0%, SOX2 wt: 22±4%, SOX2 K75A: 58±6%, SOX2 S248A: 15±3%. Error bar: ±SD. Statistical processing is t-test. *P<0.05, **P<0.01, ***P<0.001. GIC was cultured for 2 days with Compound 8 (10 μmol/L) alone or together with UDP-GlcNAc (1 mmol/L), and immunostaining was performed for SOX2 and NESTIN. As a result, the addition of UDP-GlcNAc suppressed Compound 8-dependent extranuclear elimination of SOX2.
OSMI-1, which is an O-GlcNAc transferase (OGT)-specific inhibitor, suppresses GIC growth and SOX2 expression. (A) GICs were cultured for 3 days in the presence of various concentrations of OSMI-1, and cell growth was examined using MTT assay (FIG. 6). (B) The results of immunostaining for SOX2 and NESTIN using GICs cultured for 2 days in the presence of 20 μmol/L OSMI-1 and calculating the SOX2 positive rate (SOX2/DAPI) are shown below.

[2] = system: GICs; test: Neutralization of GIC-damaging activity by addition of UDP-GlcNAc; assay type: cell-based, human; conditions: UDP-GlcNAc added after the chemical, FIG. 4
Procedure: as §1, with “As a result, the addition of UDP-GlcNAc suppressed Compound 8-dependent extranuclear elimination of SOX2.” left out

[3] = system: E6 cells; test: Quantitative determination of metabolites by LC-MS/MS in E6 cells; assay type: cell-based, human; parameters: dose or concentration left out as unconfirmed; conditions: 24 hours, compared to control DMSO-treated group
Procedure: (§2) Compound 8 was added to GICs (E6, E16) at […] and treated for 24 hours. Cells were washed with a 5% mannitol solution, 70% ice-cold methanol was added, and metabolites were extracted. […] In addition, the amount of orotic acid was decreased in E16 cells.

[4] = system: Glioma-initiating cell E16R; test: Cell proliferation test (MTT) on GICR strain E16R; assay type: cell-based; conditions: Homo sapiens, 72 h, MTT after 3 days
Procedure: (§3) GIC and GICR strain: Cell growth test was performed using E6, E6R, E16, and E16R (Stem Cells. 2016 August; 34(8): 2016-25.).
(§4) Cell culture solutions were obtained by mixing a medium prepared by adding various compounds, bFGF (Peprotech, 100-18B) and EGF (Peprotech, 100-15) to DMEM/Ham's F-12 medium (SIGMA, D8062) and a medium prepared by adding FCS (Hyclone, SH30910.03) to DMEM medium (Nacalai tesque, 08458-45) to a concentration of 10% for use.
(§5) Each compound adjusted to a predetermined concentration was dispensed into a 96-well plate (Falcon, 353072) at 80 μL/well, and E6 cells and E6R cells were seeded on the 96-well plate at 1000 cells/80 μL/well. After 3 days, 10 μL of an MTT reagent (DOJINDO, 341-01823) was added, the cells were incubated at 37° C. for 3 hours, the culture solution was removed, and 100 μL of DMSO was added. The absorbance at 570 nm was measured using Bio-Rad iMark (Bio-Rad, 168-1130JA). The growth inhibition rate at each test compound concentration was calculated by the following formula using the absorbance as an index of the viable cell count.
(§6) The growth inhibition rate at each compound concentration was determined, and the 50% growth inhibition concentration GI50 (μmol/L)] was calculated using XLfit. Growth inhibition rate (%)=(Amount of luminescence from wells supplemented with test compound)/(Amount of luminescence from wells supplemented with DMSO)×100

[5] = system: Glioma-initiating cell E16; test: Cell proliferation test (MTT) on GIC strain E16; assay type: cell-based; conditions: Homo sapiens, 72 h, MTT after 3 days
Procedure: as §3, §4, §5, §6

[6] = system: GICs (E6, E16); test: Quantitative determination of metabolites by LC-MS/MS in GICs; assay type: cell-based, human; parameters: amounts of purine metabolites (ATP, GTP, dATP, dGTP): dose or concentration left out as unconfirmed; conditions: 24 hours
Procedure: as §2

[7] = system: Glioma-initiating cell E6; test: Cell proliferation test (MTT) on GIC strain E6; assay type: cell-based; conditions: Homo sapiens, 72 h, MTT after 3 days
Procedure: as §3, §4, §5, §6

[8] = after treatment with Compound 8, anti-FLAG immunostaining

GI50 ([4]; read-out: GI50 (nmol/L) of Glioma-initiating cell E16R): 490 nmol/L
GI50 ([4]; read-out: GI50 class of Glioma-initiating cell E16R): < 1000 nmol/L
GI50 ([5]; read-out: GI50 (nmol/L) of Glioma-initiating cell E16): 434 nmol/L
GI50 ([5]; read-out: GI50 class of Glioma-initiating cell E16): < 1000 nmol/L
GI50 ([7]; read-out: GI50 (nmol/L) of Glioma-initiating cell E6): < 7 nmol/L
GI50 ([7]; read-out: GI50 class of Glioma-initiating cell E6): < 1000 nmol/L
Structure (SMILES): O=C(O)c1cc(C2CC2)cnc1Nc1ccc2c(ccn2-c2ccccc2)c1 [Compound 8, 5-cyclopropyl-2-((1-phenyl-1H-indole-5-yl)amino)nicotinic acid]
SOX2/DAPI positive rate in GICs (E16) ([1]; Compound 8 10 μM, LMB 150 nM where added, cultured one day, control 72±11%): 0.5±1%
SOX2/DAPI positive rate, GIC (E16) expressing SOX2 K75A [1, 8]: 58±6%
SOX2/DAPI positive rate, GIC (E16) expressing SOX2 S248A [1, 8]: 15±3%
SOX2/DAPI positive rate, GIC (E16) expressing SOX2 wt [1, 8]: 22±4%
cytotoxic activity of Compound 8 on GICs when UDP-GlcNAc was added [2]: neutralized
increase of the amount of DHO in E6 cells [3]: 596 fold
amounts of pyrimidine metabolites downstream of orotic acid (UMP, UDP, UTP, CMP, CDP, CTP, dCTP, dTTP) ([6]; 10 M): reduced
amounts of purine metabolites (ATP, GTP, dATP, dGTP) [6]: remained unchanged
